Reference: US20070219186A1, “Pyrazolo[1,5-A]pyrimidine derivatives and methods of use thereof” (priority 2006, published 2007)
Where two headings read alike, the source gives them in different places.

Biological target: T1, human B-Raf (Homo sapiens, UniProt P15056)
T1 construct: Flag; GST; made in house; host or cells: Sf9 insect cells (B-Raf); E. coli (MEK1-GST)
Assay: B-Raf Kinase to MEK1 ELISA
Assay type: biochemical
Conditions: for inhibition at 10 µM: read-out: % Inhib./10 uM
How it was run: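 Flag/GST-tagged human B-Raf (Sf9, ~20 ng/point) phosphorylates non-active GST-MEK1 (50 nM final) with ATP and MgCl2 in MOPS pH 7.2 buffer, 60 min at RT. Product is captured on anti-GST plates; MEK1 pSer217/221 is read by phospho-antibody plus europium conjugate (DELFIA).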

[1] = median, cpd concentrations from 10 μM to 30 nM in half log dilutions, read-out: Median IC50

T1 sequence (P15056 whole entry): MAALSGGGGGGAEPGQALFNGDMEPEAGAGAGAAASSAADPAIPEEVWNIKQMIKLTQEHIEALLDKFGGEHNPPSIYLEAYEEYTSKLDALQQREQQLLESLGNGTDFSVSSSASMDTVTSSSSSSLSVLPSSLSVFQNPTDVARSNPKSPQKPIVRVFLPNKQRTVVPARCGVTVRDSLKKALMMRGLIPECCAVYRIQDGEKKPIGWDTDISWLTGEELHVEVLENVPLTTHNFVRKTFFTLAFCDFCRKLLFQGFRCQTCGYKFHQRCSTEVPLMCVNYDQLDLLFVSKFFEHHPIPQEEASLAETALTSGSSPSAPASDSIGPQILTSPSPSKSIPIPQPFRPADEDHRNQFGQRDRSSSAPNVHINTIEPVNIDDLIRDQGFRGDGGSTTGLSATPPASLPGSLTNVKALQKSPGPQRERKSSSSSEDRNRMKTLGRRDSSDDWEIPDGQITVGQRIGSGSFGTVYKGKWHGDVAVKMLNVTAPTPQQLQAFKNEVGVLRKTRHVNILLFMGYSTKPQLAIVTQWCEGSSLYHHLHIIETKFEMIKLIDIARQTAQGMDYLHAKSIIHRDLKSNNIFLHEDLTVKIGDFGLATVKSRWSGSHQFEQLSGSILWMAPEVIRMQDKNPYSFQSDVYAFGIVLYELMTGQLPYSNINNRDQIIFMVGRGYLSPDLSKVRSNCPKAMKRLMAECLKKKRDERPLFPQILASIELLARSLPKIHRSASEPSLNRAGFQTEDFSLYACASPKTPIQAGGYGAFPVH

Structure (SMILES) | IC50 [1] [nM] | inhibition at 10 µM [%] | IC50 [nM]
CN(C)CCc1ccc(-c2cnn3c(-c4cccc(NC(=O)c5cccc(C(F)(F)F)c5)c4)ccnc23)cc1 [Example 289, N-[3-(3-{4-[2-(dimethylamino)ethyl]phenyl}pyrazolo[1,5-a]pyrimidin-7-yl)phenyl]-3-(trifluoromethyl)benzamide] | 26 | 86 | 
O=C(Nc1cccc(-c2ccnc3c(-c4ccccc4C(F)(F)F)cnn23)c1)c1cccc(C(F)(F)F)c1 [Example 290, 3-(trifluoromethyl)-N-(3-{3-[2-(trifluoromethyl)phenyl]pyrazolo[1,5-a]pyrimidin-7-yl}phenyl)benzamide] |  | 67 | 367
O=C(Nc1cccc(-c2ccnc3c(-c4cccc(C(F)(F)F)c4)cnn23)c1)c1cccc(C(F)(F)F)c1 [Example 291, 3-(trifluoromethyl)-N-(3-{3-[3-(trifluoromethyl)phenyl]pyrazolo[1,5-a]pyrimidin-7-yl}phenyl)benzamide] | > 10000 | 33 | 
O=C(Nc1cccc(-c2ccnc3c(-c4ccc(C(F)(F)F)cc4)cnn23)c1)c1cccc(C(F)(F)F)c1 [Example 292, 3-(trifluoromethyl)-N-(3-{3-[4-(trifluoromethyl)phenyl]pyrazolo[1,5-a]pyrimidin-7-yl}phenyl)benzamide] | > 10000 | 26 | 
N#Cc1ccccc1-c1cnn2c(-c3cccc(NC(=O)c4cccc(C(F)(F)F)c4)c3)ccnc12 [Example 293, N-{3-[3-(2-cyanophenyl)pyrazolo[1,5-a]pyrimidin-7-yl]phenyl}-3-(trifluoromethyl)benzamide] |  | 55 | 7470
N#Cc1cccc(-c2cnn3c(-c4cccc(NC(=O)c5cccc(C(F)(F)F)c5)c4)ccnc23)c1 [Example 294, N-{3-[3-(3-cyanophenyl)pyrazolo[1,5-a]pyrimidin-7-yl]phenyl}-3-(trifluoromethyl)benzamide] | > 10000 | 42 | 
N#Cc1ccc(-c2cnn3c(-c4cccc(NC(=O)c5cccc(C(F)(F)F)c5)c4)ccnc23)cc1 [Example 295, N-{3-[3-(4-cyanophenyl)pyrazolo[1,5-a]pyrimidin-7-yl]phenyl}-3-(trifluoromethyl)benzamide] | > 10000 | 41 | 
COC(=O)c1cccc(-c2cnn3c(-c4cccc(NC(=O)c5cccc(C(F)(F)F)c5)c4)ccnc23)c1 [Example 296, methyl 3-[7-(3-{[3-(trifluoromethyl)benzoyl]amino}phenyl)pyrazolo[1,5-a]pyrimidin-3-yl]benzoate] |  | 53 | 1770
COC(=O)c1ccc(-c2cnn3c(-c4cccc(NC(=O)c5cccc(C(F)(F)F)c5)c4)ccnc23)cc1 [Example 297, methyl 4-[7-(3-{[3-(trifluoromethyl)benzoyl]amino}phenyl)pyrazolo[1,5-a]pyrimidin-3-yl]benzoate] |  | 75 | 2190
CC(=O)c1ccccc1-c1cnn2c(-c3cccc(NC(=O)c4cccc(C(F)(F)F)c4)c3)ccnc12 [Example 298, N-{3-[3-(2-acetylphenyl)pyrazolo[1,5-a]pyrimidin-7-yl]phenyl}-3-(trifluoromethyl)benzamide] |  | 69 | 266
CC(=O)c1cccc(-c2cnn3c(-c4cccc(NC(=O)c5cccc(C(F)(F)F)c5)c4)ccnc23)c1 [Example 299, N-{3-[3-(3-acetylphenyl)pyrazolo[1,5-a]pyrimidin-7-yl]phenyl}-3-(trifluoromethyl)benzamide] |  | 63 | 619
CC(=O)c1ccc(-c2cnn3c(-c4cccc(NC(=O)c5cccc(C(F)(F)F)c5)c4)ccnc23)cc1 [Example 300, N-{3-[3-(4-acetylphenyl)pyrazolo[1,5-a]pyrimidin-7-yl]phenyl}-3-(trifluoromethyl)benzamide] |  | 71 | 4490
